# Laboratory results taken from patent US7605265B2, “Heterodimers and methods of using them” (priority 2007, dated 2009).
# What was measured:
# [1] = target: T1, acetylcholinesterase (AChE) (Rattus norvegicus, UniProt P37136); test: In vitro inhibition of AChE (cholinesterase assay, Ellman method); assay type: biochemical
# T1 construct: from tissue; host or cells: rat brain cortex
# T1 sequence (P37136 32-614): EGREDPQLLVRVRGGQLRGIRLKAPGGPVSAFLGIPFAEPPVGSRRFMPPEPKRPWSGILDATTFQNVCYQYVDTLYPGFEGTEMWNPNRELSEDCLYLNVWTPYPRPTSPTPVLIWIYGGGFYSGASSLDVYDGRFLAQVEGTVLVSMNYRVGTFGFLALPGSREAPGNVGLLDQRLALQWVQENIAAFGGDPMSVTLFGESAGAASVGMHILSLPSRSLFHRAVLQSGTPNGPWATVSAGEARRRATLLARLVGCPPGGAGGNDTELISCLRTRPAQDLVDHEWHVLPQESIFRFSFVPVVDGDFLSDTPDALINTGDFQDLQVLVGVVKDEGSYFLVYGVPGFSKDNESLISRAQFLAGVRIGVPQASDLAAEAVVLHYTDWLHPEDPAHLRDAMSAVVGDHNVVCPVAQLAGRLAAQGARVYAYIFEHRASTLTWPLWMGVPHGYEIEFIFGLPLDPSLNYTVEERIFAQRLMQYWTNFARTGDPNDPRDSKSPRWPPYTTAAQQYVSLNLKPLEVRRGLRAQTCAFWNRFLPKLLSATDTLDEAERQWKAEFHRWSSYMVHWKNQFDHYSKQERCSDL
# Method: The in vitro inhibition of the enzymes acetylcholinesterase (AChE) and butyrylcholinesterase (BChE) were assessed. BChE, like AChE, breaks down acetylcholine (ACh) but is found in plasma and other organs such as the liver, skin and gastrointestinal tract.
# The enzymes, AChE and BChE, used in the inhibition studies were prepared from the cortex and serum of decapitated rats, respectively.
# NMDA receptor = target: T2, NMDA receptor (Rattus norvegicus, UniProt P35439); test: Whole cell patch clamp, NMDA-induced current in hippocampal neurons; assay type: cell-based; conditions: DIV10-14 rat hippocampal neurons, NMDA 50 μM, compound 10 μg/mL; FIG. 1
# T2 construct: Hippocampal neurons from embryonic day 18 rats were isolated, trypsinized, plated onto 35-mm plates; endogenous in cells; host or cells: primary hippocampal neurons from embryonic day 18 rats, DIV10-14
# Method: The NMDA receptor is a gated ion channel, which allows inflow of current during a nerve impulse. Antagonists to the receptor would prevent the inflow of current. Memantine, a known NMDA antagonist was used as the positive control.
# Hippocampal neurons from embryonic day 18 rats were isolated, trypsinized, plated onto 35-mm plates at a density of 3×10^4 cells/plate and cultured in Neurobasal medium (NB) supplemented with B27 nutrient. DIV10-14 rat hippocampal neurons were treated with NMDA (50 μM) in the absence or presence of the novel compounds (Cpd A, B and C) (10 μg/mL). Data is presented as % of NMDA-induced current. DMSO is the solvent control.
# transient focal ischemia = test: MCAO (middle carotid artery occlusion model), transient focal ischemia; assay type: in vivo, mice
# Method: The MCAO (middle carotid artery occlusion model) was performed to investigate the protective effects of compounds A, B and C on the brain when the brain was exposed to transient focal ischemia (lack of oxygen), emulating brain conditions during a stroke. […] The ability of the novel compounds to protect against the appearance of these neurological deficits was examined using a four-point scale neurological scoring system (Mann Whitney U test). For each of the following observable signs, the distribution of test subjects was noted (with and without treatment with the invention after ischemia): (0) no observable neurological deficits (normal); (1) failure to extend the left forepaw fully (mild); (2) circling to the contralateral side (moderate); and (3) loss of walking and righting reflex (severe). • (ii) The brains of the test subjects slices were sectioned into five pieces and the infarct area and volume of each slice was measured. The % of infarct area in test subjects treated with the invention after ischemia was compared to that of the control group for each brain slice. • (iii) Hemispheric brain swelling and infarct volume (the area of dead tissue caused by inadequate blood supply) was measured for test subjects treated with the invention after ischemia, and compared to that of the control group.
# The compounds were administered 5 minutes after ischemia, 5 minutes after reperfusion, or 6 hours after ischemia. FIGS. 5a to 5f show results for the heterodimers compound B, C or A respectively, when administered 5 minutes after ischemia or reperfusion. FIGS. 5g and 5h show the results when the novel heterodimers were administered 6 hours after ischemia.
# Compound B was administered at 5 minutes after ischemia. Distribution of neurological scores based on a four-point scale neurological scoring system (Mann Whitney U test): (0) no observable neurological deficits (normal); (1) failure to extend the left forepaw fully (mild); (2) circling to the contralateral side (moderate); and (3) loss of walking and righting reflex (severe).
# The brain was sectioned into five pieces, each 2-mm thick. The infarct area of each posterior surface was analyzed by an image analysis program. The percentage of infarct area and volume were calculated and presented as the percentage of the infarct area of the contralateral hemisphere to eliminate the contribution of edema to the ischemic lesion.
# The infarct area of each posterior surface was analyzed by an image analysis program. Hemispheric brain swelling was calculated as follows (ipsilateral volume−contralateral volume)/contralateral volume×100%.
# [2] = 0.005 μg/kg, 6 hours after ischemia
# [3] = 0.05 μg/kg, 5 minutes after ischemia
# [4] = 0.05 μg/kg, 6 hours after ischemia
# [5] = 0.5 μg/kg, 5 minutes after ischemia
compound,measurement,setting,value
O=c1ccc2c([nH]1)CCCC2NCCCCCCCNc1c2c(nc3cc(Cl)ccc13)CCCC2 (centres unmarked) [Compound B],times more potent than bis(7)-tacrine,[1]; AChE inhibition,~1885
same,times more potent than tacrine,[1]; AChE inhibition,~20471
same,Selectivity AchE*,[1]; IC50 (BChE)/IC50 (AChE),4563
same,IC50,[1]; enzyme prepared from rat cortex,6.8 ± 3 pM
same,NMDA-induced current,NMDA receptor,decreased NMDA-induced current in hippocampal neurons
same,% Infarct area in brain slice # 1,transient focal ischemia; [2],11.9 ± 4.3%
same,% Infarct area in brain slice # 2,transient focal ischemia; [2],43.4 ± 6.5%
same,% Infarct area in brain slice # 3,transient focal ischemia; [2],40.1 ± 4.7 %
same,% Infarct area in brain slice # 4,transient focal ischemia; [2],24.3 ± 7.5%
same,% Infarct area in brain slice # 5,transient focal ischemia; [2],−1.4 ± 1.0%
same,Hemispheric swelling (%),transient focal ischemia; [2],7.3 ± 1.2%
same,Infarct volume (%),transient focal ischemia; [2],28.5 ± 3.4%
same,Observed Neurological Deficits Mean ± SEM,transient focal ischemia; [2],1.2 ± 0.2
same,"Observed Neurological Deficits, score 0 (number of animals)",transient focal ischemia; [2],0
same,"Observed Neurological Deficits, score 1 (number of animals)",transient focal ischemia; [2],7
same,"Observed Neurological Deficits, score 2 (number of animals)",transient focal ischemia; [2],2
same,"Observed Neurological Deficits, score 3 (number of animals)",transient focal ischemia; [2],0
same,n (dead/total): dead/total,transient focal ischemia; [2],9 (0/9)
same,% Infarct area in brain slice # 1,transient focal ischemia; [3],11.5%
same,% Infarct area in brain slice # 2,transient focal ischemia; [3],42.6 ± 4.8 %
same,% Infarct area in brain slice # 3,transient focal ischemia; [3],40.0 ± 6.6 %
same,% Infarct area in brain slice # 4,transient focal ischemia; [3],34.0%
same,% Infarct area in brain slice # 5,transient focal ischemia; [3],0.1%
same,Hemispheric swelling (%),transient focal ischemia; [3],6.5 ± 1.5%
same,Infarct volume (%),transient focal ischemia; [3],31.2 ± 4.6 %
same,Observed Neurological Deficits Mean ± SEM,transient focal ischemia; [3],1.1 ± 0.1
same,"Observed Neurological Deficits, score 0 (number of animals)",transient focal ischemia; [3],0
same,"Observed Neurological Deficits, score 1 (number of animals)",transient focal ischemia; [3],8
same,"Observed Neurological Deficits, score 2 (number of animals)",transient focal ischemia; [3],1
same,"Observed Neurological Deficits, score 3 (number of animals)",transient focal ischemia; [3],0
same,n (dead/total): dead/total,transient focal ischemia; [3],9 (2/11)
same,infarct area in brain slices (in words),"transient focal ischemia; 0.05 μg/kg, 5 minutes after ischemia, FIG. 5a",reduced the infarct area in brain slices #2 and #3
same,% Infarct area in brain slice # 1,transient focal ischemia; [4],15.7 ± 2.9%
same,% Infarct area in brain slice # 2,transient focal ischemia; [4],50.5 ± 7.2%
same,% Infarct area in brain slice # 3,transient focal ischemia; [4],41.7 ± 6.0%
same,% Infarct area in brain slice # 4,transient focal ischemia; [4],25.2 ± 8.2%
same,% Infarct area in brain slice # 5,transient focal ischemia; [4],−1.3 ± 1.7%
same,Hemispheric swelling (%),transient focal ischemia; [4],7.0 ± 1.5%
same,Infarct volume (%),transient focal ischemia; [4],31.1 ± 4.8%
same,Observed Neurological Deficits Mean ± SEM,transient focal ischemia; [4],1.4 ± 0.2
same,"Observed Neurological Deficits, score 0 (number of animals)",transient focal ischemia; [4],0
same,"Observed Neurological Deficits, score 1 (number of animals)",transient focal ischemia; [4],5
same,"Observed Neurological Deficits, score 2 (number of animals)",transient focal ischemia; [4],3
same,"Observed Neurological Deficits, score 3 (number of animals)",transient focal ischemia; [4],0
same,n (dead/total): dead/total,transient focal ischemia; [4],8 (3/12)
same,Observed Neurological Deficits Mean ± SEM,transient focal ischemia; [5],1.5 ± 0.3
same,"Observed Neurological Deficits, score 0 (number of animals)",transient focal ischemia; [5],0
same,"Observed Neurological Deficits, score 1 (number of animals)",transient focal ischemia; [5],2
same,"Observed Neurological Deficits, score 2 (number of animals)",transient focal ischemia; [5],2
same,"Observed Neurological Deficits, score 3 (number of animals)",transient focal ischemia; [5],0
same,n (dead/total): dead/total,transient focal ischemia; [5],4 (4/8)
same,infarct volume and hemispheric swelling (in words),"transient focal ischemia; 5 minutes after ischemia (compound A: 0.05 and 0.1 mg/kg), FIG. 5b, 5f",reduces infarct volume but not hemispheric swelling
same,infarct area (in words),"transient focal ischemia; 6 hours after ischemia, FIG. 5g",improvement in the infarct area
same,infarct volume (in words),"transient focal ischemia; 6 hours after ischemia, FIG. 5h",decreases infarct volume
same,neurological deficits induced by ischemia (in words),transient focal ischemia; administered 5 minutes after ischemia,reduced neurological deficits induced by ischemia
same,neurological deficits (in words),transient focal ischemia; administration 6 hours after ischemia,reduced neurological deficits
